Test results published in the supplement of paper PMC10307832.

Tests used:
Test in all cases: relative viability (nuclei count vs DMSO), 5 days (fraction); higher = more cells survive
[1] = compound: COc1cc2c(Oc3ccc4[nH]c(C)cc4c3F)ncnc2cc1OCCCN1CCCC1 [Cediranib] + COc1cccc2cc(-c3nc([C@H]4CC[C@H](C(=O)O)CC4)n4ncnc(N)c34)[nH]c12 [OSI-027] (partner 0.5 µM)
Outline: (§1)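 A single step with final 0.05% Triton X-100, 1% formaldehyde and 1 ug/ml Hoechst fixed the cells and stained nuclei 5 days after treatment. Lung cancer cell lines in 1536-well plates had been treated by pin tool the day after seeding with one drug alone or a fixed anchor-drug dose plus five library-drug doses (not always all listed) in √10 steps, and nuclei were counted on 4× images. Relative viability is the ratio of nuclei in treated wells to nuclei in vehicle wells, taken as the median of duplicate plates.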

[2] = compound: Nc1ncn([C@H]2C[C@H](O)[C@@H](CO)O2)c(=O)n1 [Decitabine] + COc1cc2c(Oc3ccc(NC(=O)C4(C(=O)Nc5ccc(F)cc5)CC4)cc3F)ccnc2cc1OCCCN1CCOCC1 [Foretinib] (partner 0.25 µM)
Outline: as §1

[3] = compound: Nc1ncn([C@H]2C[C@H](O)[C@@H](CO)O2)c(=O)n1 [Decitabine] + O=C(CCCCCCC(=O)Nc1ccccc1)NO [Vorinostat] (partner 1 µM)
Outline: as §1

[4] = compound: O=C(C[C@H]1NCCC[C@@H]1O)Cn1cnc2cc(Br)c(Cl)cc2c1=O (racemic) [Halofuginone] + Nc1ncn([C@H]2C[C@H](O)[C@@H](CO)O2)c(=O)n1 [Decitabine] (partner 2 µM)
Outline: as §1

Cell Line | relative viability ([1]; first compound 0.04 µM) | relative viability ([1]; first compound 0.1265 µM) | relative viability ([1]; first compound 0.4 µM) | relative viability ([1]; first compound 1.265 µM) | relative viability ([1]; first compound 4 µM) | relative viability ([2]; first compound 0.04 µM) | relative viability ([2]; first compound 0.1265 µM) | relative viability ([2]; first compound 0.4 µM) | relative viability ([2]; first compound 1.265 µM) | relative viability ([2]; first compound 4 µM) | relative viability ([3]; first compound 0.04 µM) | relative viability ([3]; first compound 0.1265 µM) | relative viability ([3]; first compound 0.4 µM) | relative viability ([3]; first compound 1.265 µM) | relative viability ([3]; first compound 4 µM) | relative viability ([4]; first compound 0.001 µM) | relative viability ([4]; first compound 0.003162 µM) | relative viability ([4]; first compound 0.01 µM) | relative viability ([4]; first compound 0.03162 µM) | relative viability ([4]; first compound 0.1 µM)
NCI-H2170 | 0.619 | 0.529 | 0.691 | 0.611 | 0.786 | 0.87 | 0.85 | 0.767 | 0.437 | 0.393 | 0.582 | 0.568 | 0.414 | 0.28 | 0.257 | 0.479 | 0.47 | 0.453 | 0.489 | 0.457
NCI-H2342 | 0.615 | 0.671 | 0.659 | 0.549 | 0.508 | 1.29 | 1.03 | 1.1 | 0.674 | 0.568 | 0.755 | 0.798 | 0.728 | 0.542 | 0.522 | 0.664 | 0.724 | 0.722 | 0.671 | 0.685
NCI-H2347 | 0.376 | 0.448 | 0.371 | 0.407 | 0.425 | – | 0.857 | 0.454 | 0.683 | 0.819 | 0.522 | 0.542 | 0.521 | 0.379 | 0.424 | 0.595 | 0.676 | 0.567 | 0.65 | 0.659
NCI-H2405 | 0.648 | 0.606 | 0.617 | 0.52 | 0.622 | 0.957 | 0.918 | 0.863 | 0.628 | 0.462 | 0.765 | 0.878 | 0.894 | 0.561 | 0.395 | 0.74 | 0.781 | 0.767 | 0.722 | 0.632
